Read-outs that look alike come from different tables or passages of the source.
How the values were obtained:
[1] = molecular target: T1, Actinomadura R39 DD-peptidase (Actinomadura sp., UniProt P39045); assay type: biochemical
B. subtilis PBP4a = B. subtilis PBP4a (Bacillus subtilis, UniProt P39844); assay: Inhibition of B. subtilis PBP4a, competition with substrate 14; assay type: biochemical
[2] = Hydration equilibrium of the carbonyl compounds in aqueous solution; assay type: physicochemical; conditions: from 1H NMR spectra
[3] = molecular target: T1, Actinomadura R39 DD-peptidase; assay type: biochemical; remark: listed apart in the source
[4] = literature estimate; cited from earlier work
[5] = cited from earlier work

T1 sequence (P39045 50-538): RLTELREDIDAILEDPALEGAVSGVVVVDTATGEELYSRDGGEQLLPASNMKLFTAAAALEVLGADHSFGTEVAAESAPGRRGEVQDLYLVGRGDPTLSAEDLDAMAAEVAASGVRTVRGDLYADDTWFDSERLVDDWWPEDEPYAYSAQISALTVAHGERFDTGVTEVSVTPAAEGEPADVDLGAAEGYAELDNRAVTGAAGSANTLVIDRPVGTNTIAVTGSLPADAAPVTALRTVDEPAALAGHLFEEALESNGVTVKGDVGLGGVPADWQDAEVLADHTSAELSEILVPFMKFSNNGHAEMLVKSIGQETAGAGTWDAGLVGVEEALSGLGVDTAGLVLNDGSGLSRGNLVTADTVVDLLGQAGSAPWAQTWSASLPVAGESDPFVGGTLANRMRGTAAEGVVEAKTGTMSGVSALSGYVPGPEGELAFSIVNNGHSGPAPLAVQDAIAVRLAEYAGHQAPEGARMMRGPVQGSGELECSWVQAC

C[C@H](C=O)NC(=O)CCCC[C@@H](N)C(=O)O [Compound 11]
Time dependence of inhibition, R39 DD-peptidase [1]: No time dependence | Time dependence of inhibition, PBP4a (B. subtilis PBP4a): No time dependence | KH (hydration equilibrium constant [IOH2]/[I]) [2]: 30

CC(NC(=O)CCCC[C@@H](N)C(=O)O)C(=O)C(F)(F)F (stereo partly drawn) [Compound 12, D-α-Aminopimelyl-(1,1,1-trifluoro-3-amino)butan-2-one]
Ki [1]: 370 nM | Time dependence of inhibition, R39 DD-peptidase [1]: No time dependence | Ki [3]: 170 nM | Ki (B. subtilis PBP4a): 13500 nM | Time dependence of inhibition, PBP4a (B. subtilis PBP4a): No time dependence

CC(=O)C(F)(F)F [trifluoroacetone]
KH, lower limit estimate [4]: ≥ 35

OCC(F)(F)F [trifluoroethanol]
pKa [5]: 12.4

C[C@@H](SC(=O)CNC(=O)Cc1ccccc1)C(=O)O [Compound 14, (Phenylacetyl)glycyl-D-thiolactate, reference compound]
Km (B. subtilis PBP4a; read-out: Km of the substrate, PBP4a, 20 mM MOPS pH 7.50, 25 °C): 440 ± 80 µM

From PMC3731424 (Biochemistry, 2013)
